According to patent US5629347A, “Aromatic compounds, pharmaceutical compositions containing them and their use in therapy” (Merck Sharp & Dohme Ltd., priority 1991, dated 1997):
Where a name gives a salt, the structure may show the parent alone.

Each compound was assayed against human NK1R (Homo sapiens, UniProt P25103) (assay: biochemical). Conditions: 1 h; @ 0.3 μM; read-out: Substance P antagonism (%).
Format: binding
Method: To express the cloned human neurokinin-1-receotor (NK1R) transiently in COS, the cDNA for the human NK1R was cloned into the expression vector pCDM9 which was derived from pCDM8 (INVITROGEN) by inserting the ampicillin resistance gene (nucleotide 1973 to 2964 from BLUESCRIPT SK+ (trademark, […], La Jolla, Calif., U.S.A.)) into the Sac II site. Transfection of 20 ug of the plasmid DNA into 10 million COS cells was achieved by electroporation in 800 μl of transfection buffer (135 mM NaCl, 1.2 mM CaCl2, 1.2 mM MgCl2, 2.4 mM K2 HPO4, 0.6 mM KH2 PO4, 10 mM glucose, 10 mM N-2-hydroxyethyl-piperazine-N'-2-ethane sulphonic acid (HEPES) pH 7.4) at 260 V and 950 μF using the IBI GENEZAPPER (trademark IBI, New Haven, Conn., U.S.A.). The cells were incubated in 10% fetal calf serum, 2 mM glutamine, 100 U/ml penicillin-streptomycin, and 90% DMEM media (GIBCO, Grand Island, N.Y., U.S.A.) in 5% CO2 at 37° C. for three days before the binding assay.
To establish a stable cell line expressing cloned human NK1R, the cDNA was subcloned into the vector pRcCMV (INVITROGEN). Transfection of 20 ug of the plasmid DNA into CHO cells was achieved by electroporation in 800 μl of transfection buffer supplemented with 0.625 mg/ml Herring sperm DNA at 300 V and 950 μF using the IBI GENEZAPPER (IBI). The transfected cells were incubated. in CHO media [10% fetal calf serum, 100 U/ml penicillin-streptomycin, 2 mM glutamine, 1/500 hypoxanthinethymidine (ATCC), 90% IMDM media (JRH BIOSCIENCES, Lenexa, Kans., U.S.A.), 0.7 mg/ml G418 (GIBCO)] in 5% CO2 at 37° C. until colonies were visible. Each colony was separated and propagated. The cell clone with the highest number of human NK1R was selected for subsequent applications such as drug screening.
The binding assay of human NK1R expressed in either COS or CHO cells is based on the use of ^125 I-substance P (^125 I-SP, from DU PONT, Boston, Mass.) as a radioactively labeled ligand which competes with unlabeled substance P or any other ligand for binding to the human NK1R. […] The tubes were incubated at 4° C. or at room temperature for 1 hour with gentle shaking. The bound radioactivity was separated from unbound radioactivity by GF/C filter (BRANDEL, Gaithersburg, Md.) which was prewetted with 0.1% polyethylenimine. The filter was washed with 3 ml of wash buffer (50 mM Tris pH 7.5, 5 mM MnCl2, 150 mM NaCl) three times and its radioactivity was determined by gamma counter.

human NK1R, sequence (P25103 whole entry): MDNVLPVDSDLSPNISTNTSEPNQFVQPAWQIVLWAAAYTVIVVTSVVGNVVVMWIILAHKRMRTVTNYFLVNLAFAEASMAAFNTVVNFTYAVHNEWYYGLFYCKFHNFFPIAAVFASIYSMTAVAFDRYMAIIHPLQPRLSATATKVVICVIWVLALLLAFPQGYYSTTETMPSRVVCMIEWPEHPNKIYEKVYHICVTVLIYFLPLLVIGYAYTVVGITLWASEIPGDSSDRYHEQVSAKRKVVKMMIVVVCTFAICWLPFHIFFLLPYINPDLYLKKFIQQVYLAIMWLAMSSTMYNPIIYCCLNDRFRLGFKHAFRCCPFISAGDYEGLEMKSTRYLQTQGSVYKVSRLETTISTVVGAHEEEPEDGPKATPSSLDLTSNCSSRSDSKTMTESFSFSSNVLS

inhibition at 0.3 µM [%] | Compound
42 | CC(c1cccc(Cl)c1)C(N)COCc1cc(C(F)(F)F)cc(C(F)(F)F)c1 (single isomer, unassigned) [71 (diastereomer B), 2-Amino-1-((3,5-bis(trifluoromethyl)phenyl)methyloxy)-3-(3-chlorophenyl)-butane]

Same assay, conditions: 1 h; @ 1 μM; read-out: Substance P antagonism (%)

inhibition at 1 µM [%] | Compound
48 | N#Cc1cccc(COCC(N)C(c2ccccc2)c2ccccc2)c1 (stereo not drawn) [Example 29, 2-Ammoninm-1-((3-cyanophenyl)methyloxy)-3,3-diphenylpropane oxalate salt]

Same assay, conditions: 1 h; @ 10 μM; read-out: Substance P antagonism (%)

Compound | inhibition at 10 µM [%]
COc1ccccc1CNC(=O)C(NC(=O)OC(C)(C)C)C(c1ccccc1)c1ccccc1 (stereo not drawn) [Example 3, 2-t-Butoxycarbonylamino-3,3-diphenylpropanoyl-(2-methoxyphenyl)methylamide] | 77

Same assay, conditions: displacement of 125I-substance P; human NK1R in COS or CHO cells

IC50 [nM] | Compound
160 | COc1cccc(C(Cc2ccccc2)C(N)COCc2cc(C(F)(F)F)cc(C(F)(F)F)c2)c1 (mixture of isomers) [70 (mixture of diastereomers), 2-Amino-1-((3,5-bis(trifluoromethyl)phenyl)methyloxy)-3-(3-methoxyphenyl)-4-phenylbutane]
0.4 | CC(NC(COCc1cc(C(F)(F)F)cc(C(F)(F)F)c1)C(c1ccccc1)c1ccccc1)C(N)=O (single isomer, unassigned) [41 (diastereomer A), 1-((3',5'-Bis(trifluoromethyl)phenyl)methyloxy)-2-((1-(carboxamido)ethyl)ammonium)-3,3-diphenylpropane oxalate salt]
0.5 | CC(NC(COCc1cc(C(F)(F)F)cc(C(F)(F)F)c1)C(c1ccccc1)c1ccccc1)C(N)=O (single isomer, unassigned) [41 (diastereomer B), 1-((3',5'-Bis(trifluoromethyl)phenyl)methyloxy)-2-((1-(carboxamido)ethyl)ammonium)-3,3-diphenylpropane oxalate salt]
0.4 | CC(N[C@H](COCc1cc(C(F)(F)F)cc(C(F)(F)F)c1)C(c1ccccc1)c1ccccc1)C(N)=O (single isomer, unassigned) [58 (diastereomer A)]
0.5 | CC(N[C@H](COCc1cc(C(F)(F)F)cc(C(F)(F)F)c1)C(c1ccccc1)c1ccccc1)C(N)=O (single isomer, unassigned) [58 (diastereomer B)]
5.5 | Cc1cc(C)cc(COCC(N)C(c2ccccc2)c2ccccc2)c1 (stereo not drawn) [Example 1, 2-Ammoninm-1-((3,5-dimethylphenyl)methyloxy)-3,3-diphenylpronane tosylate salt]
2.4 | Cc1cc(C)cc(COCC(C(c2ccccc2)c2ccccc2)N(C)C)c1 (stereo not drawn) [Example 2, 2-Dimethylammonium-1-((3,5-dimethylphenyl)methyloxy)-3,3-diphenylpropane tosylate salt]
700 | COc1ccccc1CNC(=O)C(N)C(c1ccccc1)c1ccccc1 (stereo not drawn) [Example 4, 2-Ammonium-3,3-diphenylpropanoyl-(2-methoxyphenyl)methylamide tosylate salt]
160 | Cc1cc(C)cc(COC(=O)C(N)C(c2ccccc2)c2ccccc2)c1 (stereo not drawn) [Example 5, (3,5-Dimethylphenyl)methyl 2-ammonium-3,3-diphenylpropanoate tosylate salt]
10 | CNC(COCc1cc(C)cc(C)c1)C(c1ccccc1)c1ccccc1 (stereo not drawn) [Example 6, 2-Methylammonium-1-((3,5-dimethylphenyl)methyloxy)-3,3-diphenylpropane oxalate salt]
20 | CCNC(COCc1cc(C)cc(C)c1)C(c1ccccc1)c1ccccc1 (stereo not drawn) [Example 7, 2-Ethylammonium-1-((3,5-dimethylphenyl)methyloxy)-3,3-diphenylpropane oxalate salt]
90 | CCCNC(COCc1cc(C)cc(C)c1)C(c1ccccc1)c1ccccc1 (stereo not drawn) [Example 8, 2-Propylammonium-1-((3,5-dimethylphenyl)methyloxy)-3,3-diphenylpropane oxalate salt]
100 | Cc1cc(C)cc(COCC(NCC2CC2)C(c2ccccc2)c2ccccc2)c1 (stereo not drawn) [Example 9, 2-Cyclopropylmethylammonium-1-((3,5-dimethylphenyl)methyloxy)-3,3-diphenylpropane tosylate salt]
70 | C=CCNC(COCc1cc(C)cc(C)c1)C(c1ccccc1)c1ccccc1 (stereo not drawn) [Example 10, 2-Allylammonium-1-((3,5-dimethylphenyl)methyloxy)-3,3-diphenylpropane oxalate salt]
320 | Cc1cc(C)cc(COCC(NCc2ccccc2)C(c2ccccc2)c2ccccc2)c1 (stereo not drawn) [Example 11, 2-Benzylammonium-1-((3,5-dimethylphenyl)methyloxy)-3,3-diphenyl propane]
19 | Cc1cc(C)cc(COCC(C(c2ccccc2)c2ccccc2)[N+](C)(C)C)c1 (stereo not drawn) [Example 12, 1-((3,5-Dimethylphenyl)methyloxy)-3,3-diphenyl-2-(N,N,N-trimethylammonium)propane iodide salt]
20 | Cc1cc(C)cc(COCC(C(c2ccccc2)c2ccccc2)N2CCCC2)c1 (stereo not drawn) [Example 13, 3,3-Diphenyl-1-((3,5-dimethylphenyl)methyloxy)-2-(1-pyrrolidinium)propane tosylate salt]
70 | Cc1cc(C)cc(COCC(C(c2ccccc2)c2ccccc2)N2CCCCC2)c1 (stereo not drawn) [Example 14, 3,3-Diphenyl-1-((3,5-dimethylphenyl)methyloxy)-2-(piperidin-1-yl)propane hydrochloride salt]
100 | Cc1cc(C)cc(COCC(C(c2ccccc2)c2ccccc2)N2CCOCC2)c1 (stereo not drawn) [Example 15, 3,3-Diphenyl-1-((3,5-dimethylphenyl)methyloxy)-2-(4-morpholino)propane]
22 | NC(COCc1cc(Cl)cc(Cl)c1)C(c1ccccc1)c1ccccc1 (stereo not drawn) [Example 18, 2-Ammouinm-1-((3,5-dichlorophenyl)methyloxy)-3,3-diphenylpropane tosylate salt]
120 | NC(COCc1cccc(Cl)c1)C(c1ccccc1)c1ccccc1 (stereo not drawn) [Example 19, 2-Ammonium-1-((3-chlorophenyl)methyloxy)-3,3-diphenylpropane tosylate salt]
40 | COC(=O)CNC(COCc1cc(C)cc(C)c1)C(c1ccccc1)c1ccccc1 (stereo not drawn) [Example 20, 2-(N-(Carbomethoxymethyl)ammonium)-1-((3,5-dimethylphenyl)methyloxy)-3,3-diphenylpropane tosylate salt]
3 | Cc1cc(C)cc(COCC(NCC(N)=O)C(c2ccccc2)c2ccccc2)c1 (stereo not drawn) [Example 21, 2-(((Carboxamido)methyl)amino)-1-((3,5-dimethylphenyl)methyloxy)-3,3-diphenylpropane]
45 | Cc1cc(C)cc(COCC(NCCO)C(c2ccccc2)c2ccccc2)c1 (stereo not drawn) [Example 22, 2-(N-(2-Hydroxyethyl)ammonium)-1-((3,5-dimethylphenyl)methyloxy)-3,3-diphenylpropane oxalate salt]
35 | Cc1cc(C)cc(COCC(NC=O)C(c2ccccc2)c2ccccc2)c1 (stereo not drawn) [Example 23, 2-Formamido-1-((3,5-dimethylphenyl)methyloxy)-3,3-diphenylpronane]
400 | NC(COCc1cccc([N+](=O)[O-])c1)C(c1ccccc1)c1ccccc1 (stereo not drawn) [Example 24, 2-Ammonium-1-((3-nitrophenyl)methyloxy)-3,3-diphenylpropane oxalate salt]
600 | NC(COCc1ccccc1)C(c1ccccc1)c1ccccc1 (stereo not drawn) [Example 25, 2-Ammonium-1-benzyloxy-3,3-diphenylpropane oxalate salt]
140 | NC(COCc1cccc(I)c1)C(c1ccccc1)c1ccccc1 (stereo not drawn) [Example 26, oxalate salt]
70 | COc1cc(COCC(N)C(c2ccccc2)c2ccccc2)cc(OC)c1 (stereo not drawn) [Example 27, 2-Ammonium-1-((3,5-dimethoxyphenyl)methyloxy-3,3-diphenylpropane oxalate salt]
300 | Cc1ccc(C)c(COCC(N)C(c2ccccc2)c2ccccc2)c1 (stereo not drawn) [Example 28, 2-Ammonium-1-((2,5-dimethylphenyl)methyloxy)-3,3-diphenylpropane oxalate salt]
